Consider two compounds from patent US20210292807A1, “METHOD FOR TESTING ANTIMICROBIAL SUSCEPTIBILITY” (priority 2017, published 2021).

Molecules are shown by their SMILES.

Test [1] concerns Klebsiella isolates. Kind of test: Acoustic flow cytometry-assisted susceptibility test (FAST), MICFAST and S/NS, Klebsiella isolates. It counts as cell-based, Klebsiella pneumoniae, Klebsiella oxytoca. To be noted: limited clinical screen concentrations. As for the experimental part:
A 1 mL aliquot of bacterial suspension was centrifuged, washed and resuspended in 1 mL filtered Hank's Buffered Salt Solution (HBSS; comprising about 0.137 M NaCl, about 5.4 mM KCl, about 0.25 mM Na2HPO4, about 0.1 g Glucose, about 0.44 mM KH2PO4, 1.3 mM CaCl2), 1.0 mM MgSO4, about 1.3 mM CaCl2), 1.0 mM MgSO4, and about 4.2 mM NaHCO3) and diluted in series (e.g., in a 1:10 serial dilution) to a final 1:1000 dilution.
One μL (microliter) of SYTO 9 stain (e.g., ThermoFisher Scientific) working stock solution was added to the final dilution at a final concentration of 5 μM and incubated for 5 minutes before counting bacterial events by acoustic flow cytometer (AFC) (Attune, ThermoFisher, Eugene, Oreg., USA), which was used to prepare a standardised inoculum density for susceptibility testing.
(§1) An aliquot of bacterial suspension was added to 50 mL centrifuge tubes (Corning, N.Y.) containing 9 mL of pre-warmed (37° C.) filtered MHB to produce a final density of 5×10^5-1×10^6 bacteria per mL. This suspension was incubated at 37° C. with shaking at 100 RPM for 30 minutes to obtain an actively dividing culture. An aliquot of antibiotic working solution from the previously described dilution series (appropriate to the concentration tested) was then added to each tube before a further 30-minute incubation with shaking, during which time a microbroth dilution (MBD) plate was prepared for overnight incubation at 37° C. as previously described in Clinical and Laboratory Standards Institute (2015) Performance Standards for Antimicrobial Susceptibility Testing: Informational Supplement. CLSI document M100-S25. Clinical and Laboratory Standards Institute, 950, West Valley Road, Suite 2500, Wayne, Pa., 19087, USA.
One millilitre of bacterial suspension from each antibiotic concentration was harvested by centrifugation at 7800×g for 5 minutes, washed and diluted 1:10 in filtered HBSS in a light-impermeable microcentrifuge tube, then stained with SYTO 9 stain at a final concentration of 5 μM, and incubated for 5 min before AFC sampling. Hoechst 33342 dye (NucBlue, Thermo Fisher Scientific, Eugene, Oreg., USA) and a SYTO 9/propidium iodide (PI) combination (Thermo Fisher Scientific) were used in a series of replicate experiments.
The acoustic flow cytometer employed was Attune acoustic flow cytometer (Thermo Fisher Scientific), having installed therein a 488 nm blue laser with a 530/30 nm filter on the photomultiplier tube for measuring fluorescence of cells assayed. Alternatively, the Attune NxT acoustic flow cytometer (Thermo Fisher Scientific) can be employed. AFC was calibrated at the beginning of each acquisition session using fluorescently labelled size calibration beads, in accordance with the manufacturer's instructions (ThermoFisher Scientific). The AFC settings were as follows: Forward Scatter (FSC) voltage 3100, FSC threshold 4×1000 AND, blue laser 1 (BL1—530/30 nm) voltage 1900, BL1 threshold 1×1000 AND, high sensitivity, flow rate 25 μL/minute, and an acquisition volume of 125 μL. Acquisition was halted after either collection of 20,000 events across all gates, or after 3 minutes, with each sample acquired in technical triplicate.
Collected data was exported in the FCS 3.0 file format and analysed in Flow v10.0 (FlowJo LLC, Ashland, Oreg., USA) by a single user, blinded to the MIC results by BMD (MICBMD).
Subsequent to quantitative MICFAST determination, the acoustic flow cytometer data were re-analysed in silico to produce a limited sub-set for qualitative susceptibility determination. The six antibiotic dilutions (0 mg/L, 0.25 mg/L, 1 mg/L, 2 mg/L, 4 mg/L and 16 mg/L) most relevant to qualitative susceptibility assessment were used. In silico analysis was restricted to the first technical triplicate of each recorded sample. Gating strategies remained consistent, with the addition of a gate restricting analysis to only those events recorded in the first 60 seconds of acquisition.
(In general: A flow cytometer gives signals particle by particle.)

In test [2] the test system is Klebsiella isolates. Put plainly: Broth microdilution MIC (MICBMD) of Klebsiella isolates. In kind it is cell-based, Klebsiella pneumoniae, Klebsiella oxytoca. To be noted: limited clinical screen concentrations. As for the experimental part: as §1
FIG. 2 outlines the work flow as exemplified herein. In brief, an isolate was retrieved from cryopreservation, plated onto blood agar to ensure purity, and inoculated into trypticase soy broth (TSB, described above) overnight to simulate biological fluids. A 1 mL aliquot of this overnight suspension was inoculated into Mueller-Hinton broth (MHB) [comprising about 300.0 g beef extract (dehydrated infusion from), about 17.5 g casein hydrolysate, about 1.5 g starch, reconstituted in about 1 L of water, pH 7.3±0.1 as measured and kept at 25° C.] and incubated at 37° C. to ensure bacteria were actively dividing. One aliquot was subjected to traditional microbroth dilution (MBD) susceptibility testing.
(In general: Broth dilution looks for growth in wells or tubes with falling amounts of substance.)

Where [3] appears, read: K. pneumoniae ATCC 700603 (carbapenem susceptible control).
Setting [4] is: K. pneumoniae ATCC BAA1705 (carbapenem resistant control).

`C[C@@H](O)[C@H]1C(=O)N2C(C(=O)O)=C(S[C@@H]3CN[C@H](C(=O)Nc4cccc(C(=O)O)c4)C3)[C@H](C)[C@H]12` [Analytical Ertapenem, ertapenem]: the results for the MICFAST with Klebsiella isolates [1] (setting [3]) and in the test with Klebsiella isolates [1] (setting [4]) were at most 0.25 and above 16, respectively. Also, the MICBMD in the test with Klebsiella isolates [2] (setting [3]) was at most 0.25; in the test with Klebsiella isolates [2] (setting [4]) it was above 16.
Regarding `C[C@@H](O)[C@H]1C(=O)N2C(C(=O)O)=C(SCCN=CN)C[C@H]12` [Analytical Imipenem, imipenem], the MICFAST is reported as 1 in the test on Klebsiella isolates [1] (setting [3]) and above 16 with Klebsiella isolates [1] (setting [4]). Also, the MICBMD against Klebsiella isolates [2] (setting [3]) is recorded as 2; against Klebsiella isolates [2] (setting [4]) it was above 16.
